Laboratory results taken from publication PMC4364940, “Human β-Defensin 4 with Non-Native Disulfide Bridges Exhibit Antimicrobial Activity” (PLoS ONE, 2015).
Read-outs that look alike come from different tables or passages of the source. Positions of bridges follow the written chain, without caps; N, C: chain ends. Residues, ends and D or L forms follow the SMILES beside them. *: point of attachment. Acm = CC(=O)NC*; tBu = CC(C)(C)*

Assays:
[1] = test system: Staphylococcus aureus (NCTC 8530); conditions: pH 7.4
[2] = test system: Escherichia coli (MG1655); conditions: pH 7.4
P. aeruginosa [3] = assay type: cell-based, Pseudomonas aeruginosa; conditions: peptide treated cells plated at fixed time intervals during 2 hrs of incubation
Protocol: The antibacterial activity of peptides was examined against Gram-negative bacteria Escherichia coli (MG1655), Pseudomonas aeruginosa (NCTC 6750) and Gram-positive bacteria Staphylococcus aureus (NCTC 8530) using colony counting assay. Bacteria were sub-cultured on nutrient broth (Difco, Detroit, MI, US) at 37°C to mid-logarithmic phase from an overnight grown culture. The cells were harvested and washed with 10 mM sodium phosphate buffer (pH 7.4). 100 μl of suspension containing 10^6 cfu/ml was incubated with varying concentration of peptides for 2 hrs at 37°C. The cells were spread on nutrient agar plates and incubated for 14–18 hrs at 37°C. The numbers of colony forming units (cfu) was counted and minimum concentration at which more than 99% of killing observed was taken as lethal concentration (LC). Fungicidal activity against Candida albicans (ATCC 18804) was also determined as described for the bacteria. […] The effect of loss of proton motif force (pmf) in bacteria and C. albicans on the antimicrobial activity of the peptides was determined by adding the metabolic inhibitor like carbonyl cyanide m-chlorophenylhydrazone (CCCP) (50 μM) into the cell suspension 20 mins prior to the peptides treatment. The rate of killing with respect to time was determined by plating the peptide treated cells at fixed time intervals during 2 hrs of incubation. […]

E. coli [4] = assay type: cell-based, Escherichia coli
P. aeruginosa [5] = assay: Salt sensitivity assay (150 mM NaCl); assay type: cell-based, Pseudomonas aeruginosa; conditions: peptides at lethal concentrations
[6] = test system: Candida albicans (ATCC 18804); conditions: ATCC 18804, 2 h
[7] = test system: Pseudomonas aeruginosa (NCTC 6750); conditions: NCTC 6750, 2 h, pH 7.4
E. coli [8] = assay type: cell-based, Escherichia coli; remark: listed apart in the source
S. aureus = assay type: cell-based, Staphylococcus aureus

CC[C@H](C)[C@@H]1NC(=O)[C@H](CCCNC(=N)N)NC(=O)[C@H](Cc2ccc(O)cc2)NC(=O)[C@H](CCC(=O)O)NC(=O)[C@H](CCC(N)=O)NC(=O)[C@H](CO)NC(=O)[C@H](CCCNC(=N)N)NC(=O)[C@H](CCCCN)NC(=O)[C@H](CCCCN)NC(=O)[C@H](CCCNC(=N)N)NC(=O)[C@@H](NC(=O)[C@H](CCCNC(=N)N)NC(=O)[C@H](C)NC(=O)[C@@H](NC(=O)CNC(=O)[C@H](Cc2ccc(O)cc2)NC(=O)CNC(=O)[C@H](CO)NC(=O)[C@H](CO)NC(=O)[C@@H](NC(=O)[C@H](CCCNC(=N)N)NC(=O)[C@H](CC(=O)O)NC(=O)[C@H](CC(C)C)NC(=O)[C@H](CCC(=O)O)NC(=O)[C@H](Cc2ccccc2)NC(=O)[C@@H](N)CCC(=O)O)[C@@H](C)CC)[C@@H](C)O)CSSC[C@@H](C(=O)N[C@@H](CC(C)C)C(=O)N[C@@H](CCCNC(=N)N)C(=O)N[C@@H](CCCCN)C(=O)O)NC(=O)[C@H](CO)NC(=O)[C@H](C)NC(=O)[C@H](Cc2ccc(O)cc2)NC(=O)[C@H]([C@@H](C)O)NC(=O)[C@H](CC(N)=O)NC(=O)[C@@H]2CCCN2C(=O)[C@H](CO)NC(=O)[C@H](CCCNC(=N)N)NC(=O)CNC1=O [H4-1d[S]] (H-EFELDRISSGYGTARCRKKRSQEYRIGRSPNTYASCLRK-OH; disulfide 16-36)
lethal concentration (LC) against S. aureus [1]: 5 µM
lethal concentration (LC) against E. coli [2]: 3 µM

CC[C@H](C)[C@@H]1NC(=O)[C@H](CCCNC(=N)N)NC(=O)[C@H](Cc2ccc(O)cc2)NC(=O)[C@H](CCC(=O)O)NC(=O)[C@H](CCC(N)=O)NC(=O)[C@H](CO)NC(=O)[C@H](CCCNC(=N)N)NC(=O)[C@H](CCCCN)NC(=O)[C@H](CCCCN)NC(=O)[C@H](CCCNC(=N)N)NC(=O)[C@@H](NC(=O)[C@H](CCCNC(=N)N)NC(=O)[C@H](C)NC(=O)[C@@H](NC(=O)CNC(=O)[C@H](Cc2ccc(O)cc2)NC(=O)CNC(=O)[C@H](CO)NC(=O)[C@H](CO)NC(=O)[C@@H](NC(=O)[C@H](CCCNC(=N)N)NC(=O)[C@H](CC(=O)O)NC(=O)[C@H](CC(C)C)NC(=O)[C@@H](N)CCC(=O)O)[C@@H](C)CC)[C@@H](C)O)CSSC[C@@H](C(=O)N[C@@H](CC(C)C)C(=O)N[C@@H](CCCNC(=N)N)C(=O)N[C@@H](CCCCN)C(=O)O)NC(=O)[C@H](CO)NC(=O)[C@H](C)NC(=O)[C@H](Cc2ccc(O)cc2)NC(=O)[C@H]([C@@H](C)O)NC(=O)[C@H](CC(N)=O)NC(=O)[C@@H]2CCCN2C(=O)[C@H](CO)NC(=O)[C@H](CCCNC(=N)N)NC(=O)CNC1=O [H4-1d[S]ΔEF] (H-ELDRISSGYGTARCRKKRSQEYRIGRSPNTYASCLRK-OH; disulfide 14-34; N-terminus and C-terminus assumed)
lethal concentration (LC) against S. aureus [1]: 5 µM
lethal concentration (LC) against E. coli [2]: 3 µM

CC[C@H](C)[C@@H]1NC(=O)[C@H](CCCNC(=N)N)NC(=O)[C@H](Cc2ccc(O)cc2)NC(=O)[C@H](CCC(=O)O)NC(=O)[C@H](CCC(N)=O)NC(=O)[C@H](CO)NC(=O)[C@H](CCCNC(=N)N)NC(=O)[C@@H]2CSSC[C@@H](C(=O)N[C@@H](CC(C)C)C(=O)N[C@@H](CCCNC(=N)N)C(=O)N[C@@H](CCCCN)C(=O)O)NC(=O)[C@@H]3CSSC[C@H](NC(=O)[C@@H](NC(=O)[C@H](CCCNC(=N)N)NC(=O)[C@H](CC(=O)O)NC(=O)[C@H](CC(C)C)NC(=O)[C@@H](N)CCC(=O)O)[C@@H](C)CC)C(=O)NCC(=O)N[C@@H](Cc4ccc(O)cc4)C(=O)NCC(=O)N[C@@H]([C@@H](C)O)C(=O)N[C@@H](C)C(=O)N[C@@H](CCCNC(=N)N)C(=O)N[C@@H](CSSC[C@H](NC(=O)[C@H](CCCNC(=N)N)NC(=O)CNC1=O)C(=O)N1CCC[C@H]1C(=O)N[C@@H](CC(N)=O)C(=O)N[C@@H]([C@@H](C)O)C(=O)N[C@@H](Cc1ccc(O)cc1)C(=O)N[C@@H](C)C(=O)N3)C(=O)N[C@@H](CCCNC(=N)N)C(=O)N[C@@H](CCCCN)C(=O)N[C@@H](CCCCN)C(=O)N2 [HBD4, Human β-defensin 4] (H-ELDRICGYGTARCRKKCRSQEYRIGRCPNTYACCLRK-OH; disulfide 6-33, 13-27, 17-34; N-terminus and C-terminus assumed)
lethal concentration (LC) against S. aureus ([1]; NCTC 8530, 2 h): 15 (0.47) μM
rate of killing of P. aeruginosa (P. aeruginosa [3]): more rapidly as compared to the analogs
time of incubation for killing of E. coli (E. coli [4]): ≤ 30 min
activity against P. aeruginosa in the presence of 150 mM NaCl (P. aeruginosa [5]): significant loss in activity
minimum fungicidal concentration (MFC) against C. albicans [6]: 7.5 (0.91) μM
lethal concentration (LC) against P. aeruginosa [7]: 12 (1.35) μM
activity against E. coli in the presence of 150 mM NaCl (E. coli [8]): significant loss in activity
salt sensitivity against E. coli in the absence of pmf (E. coli [8]): attenuation of activity by NaCl is not observed
activity against S. aureus in the presence of 150 mM NaCl (S. aureus): significant loss in activity
lethal concentration (LC) against E. coli ([2]; MG1655, 2 h): 5 (0.53) μM

CC[C@H](C)[C@@H]1NC(=O)[C@H](CCCNC(=N)N)NC(=O)[C@H](Cc2ccc(O)cc2)NC(=O)[C@H](CCC(=O)O)NC(=O)[C@H](CCC(N)=O)NC(=O)[C@H](CO)NC(=O)[C@H](CCCNC(=N)N)NC(=O)[C@H](CCCCN)NC(=O)[C@H](CCCCN)NC(=O)[C@H](CCCNC(=N)N)NC(=O)[C@@H](NC(=O)[C@H](CCCNC(=N)N)NC(=O)[C@H](C)NC(=O)[C@@H](NC(=O)CNC(=O)[C@H](Cc2ccc(O)cc2)NC(=O)CNC(=O)[C@H](CSC(C)(C)C)NC(=O)[C@H](CSCNC(C)=O)NC(=O)[C@@H](NC(=O)[C@H](CCCNC(=N)N)NC(=O)[C@H](CC(=O)O)NC(=O)[C@H](CC(C)C)NC(=O)[C@@H](N)CCC(=O)O)[C@@H](C)CC)[C@@H](C)O)CSSC[C@@H](C(=O)N[C@@H](CC(C)C)C(=O)N[C@@H](CCCNC(=N)N)C(=O)N[C@@H](CCCCN)C(=O)O)NC(=O)[C@H](CSCNC(C)=O)NC(=O)[C@H](C)NC(=O)[C@H](Cc2ccc(O)cc2)NC(=O)[C@H]([C@@H](C)O)NC(=O)[C@H](CC(N)=O)NC(=O)[C@@H]2CCCN2C(=O)[C@H](CSC(C)(C)C)NC(=O)[C@H](CCCNC(=N)N)NC(=O)CNC1=O [Peptide H4-1dΔEF] (H-ELDRIC(Acm)C(tBu)GYGTARCRKKRSQEYRIGRC(tBu)PNTYAC(Acm)CLRK-OH; disulfide 14-34; N-terminus and C-terminus assumed)
lethal concentration (LC) against S. aureus [1]: 3.5 µM
lethal concentration (LC) against E. coli [2]: 2.5 µM
